# Experimental data from paper PMC9785397, “Exploiting Conserved Quorum Sensing Signals in Streptococcus mutans and Streptococcus pneumoniae” (Microorganisms, 2022).
# Tests used:
# [1] = test system: S. mutans bacteriocin production against S. mitis; assay: Bacteriocin overlay assay, S. mutans spotted on S. mitis; assay type: cell-based, Streptococcus mutans; conditions: CSP1 20 μM alone vs vehicle, 16 h, 37 °C, microaerophilic
# Procedure: During the formation of complex biofilm such as dental plaque, the ability of S. mutans to compete with other commensal species determines the success of the cariogenesis process. S. mutans uses antibacterial peptides, namely, bacteriocins, to overcome and subvert the composition of dental microbiota. We investigated the production of bacteriocins using the overlay assay. Overnight cultures of S. mitis, S. oralis, S. sanguinis, P. aeruginosa, F. nucleatum, or P. gingivalis were diluted 1:100 in BHI or TS broth and incubated at 37 °C until they reached an OD620 of 0.3. Cultures were added with agar (BD Difco^TM Agar) at the final concentration of 1.5% w/v and transferred in plates. Overnight cultures of S. mutans were diluted 1:100 in BHI and added with peptides (20 μM) or the vehicle with or without CSP1. Culture media were supplemented with agar to reach the final concentration of 0.7% w/v. The solutions were spotted on the surface of agar plates prepared as described above. The plates were kept on the benchtop for 30 min, allowing the agar containing S. mutans to solidify, and then incubated at 37 °C for 16 h under microaerophilic or anaerobic conditions, as required.
# Spots (10 for each experimental group) were acquired and analyzed using NIH Image J software (version 1.53t August 2022, https://imagej.nih.gov/ij/index.html; accessed on 7 September 2022). The appearance of a clear area on the plate (bacterial growth inhibition) was evaluated as indicative of bacteriocin activity. The diameters of the area were measured in a blinded fashion.
# comE gene = assay: qRT-PCR, comE gene expression; assay type: cell-based, Streptococcus mutans; conditions: CSP1 20 μM, planktonic, 8 h, qPCR
# Procedure: (§1) S. mutans was cultured in BHI supplemented with peptides or the vehicle. Cultures were centrifuged, and total RNA was isolated and purified from the bacterial pellets using the GRS Total RNA Kit—Bacteria (GK16.0100; GRISP Research Solution, Porto, Portugal), following the manufacturer’s instructions. Purified RNA was subjected to DNase I treatment to remove contaminating DNA. The RNA yield and purity were assessed by measuring the absorbance, and only samples with a ratio of 260/280 nm in the 1.8–2 range were used. cDNA was generated using the cDNA RT kit with an RNAse inhibitor (Applied Biosystems; Monza, Milan). Quantitative PCR (qRT-PCR) was performed using SYBR green mixture (iScript One Step RT-PCR kit; Bio-Rad, Segrate, Milan) to determine the transcript levels of genes using the oligonucleotides listed in Table 3. The gyrA gene served as the housekeeping gene.
# bip gene = assay: qRT-PCR, bip gene expression; assay type: cell-based, Streptococcus mutans; conditions: CSP1 20 μM vs vehicle, 2–24 h, maximum at 8 h, qPCR
# Procedure: as §1
# S. oralis = assay: microbe, parasite or virus in culture; assay type: cell-based, Streptococcus oralis; conditions: peptides 0–50 μM, 16 h, 37 °C, microaerophilic, A620 nm, three separate experiments
# Description: (§2) Streptococcus mutans Clarke (strain designation NCTC 10449), Pseudomonas aeruginosa (Schroeter) Migula (strain designation PAO1), Fusobacterium nucleatum, subspecies nucleatum (strain VPI 4355), and Porphyromonas gingivalis (strain 2561) were purchased from ATCC (LGC Standards Srl, Milan, Italy). Streptococcus mitis, Streptococcus oralis, and Streptococcus sanguinis were obtained from clinical isolates and characterized by morphological, biochemical, and molecular typing. S. mutans, S. mitis, S. oralis, and S. sanguinis were maintained in Brain Heart Infusion (BHI) broth or agar under microaerophilic conditions. P. aeruginosa was maintained in trypticase soy (TS) agar or broth. F. nucleatum was maintained in TS agar or broth with defibrinated sheep blood under anaerobic conditions. P. gingivalis was maintained in ATCC Medium 2722 supplemented with TS broth or agar under anaerobic conditions. Before the experiments, bacterial cultures were inoculated in fresh media (dilution 1:100) and grown for 16 h at 37 °C.
# (§3) The antimicrobial activities of the tested peptides were assessed through the determination of the minimum inhibitory concentration (MIC) standardized by the Clinical and Laboratory Standards Institute. Bacterial inocula were diluted in 10 mL of MHB […]. The concentration of the bacteria was adjusted to 0.5 McFarland standard, and the bacteria were dispensed in 96-well microtiter plates (final bacterial concentration: 1 × 10^4 CFU/well). Peptides were dissolved in sterile water (stock concentration: 2 mM) and added at final concentrations ranging from 0 to 50 µM. Plates were incubated at 37 °C for 16 h. At the end of incubation, bacterial growth was recorded using a microplate reader (Varioskan Lux Reader; Thermo Fisher Scientific, Milan, Italy) by quantifying the adsorption at 620 nm. Cultures were then opportunely diluted and seeded on agar plates. Bacterial cultures inoculated with the highest final concentration of the vehicle (sterile water) or chlorhexidine hydrochloride salt (CHX, concentration range: 0.05 to 500 μg/mL; Merck, Milan, Italy) were included as controls in each test. Experiments were performed in triplicate.
# S. mitis = assay: microbe, parasite or virus in culture; assay type: cell-based, Streptococcus mitis; conditions: peptides 0–50 μM, 16 h, 37 °C, microaerophilic, A620 nm, three separate experiments
# Description: as §2, §3
smiles,measurement,setting,value
CC[C@H](C)[C@H](NC(=O)[C@H](Cc1ccccc1)NC(=O)[C@H](CC(=O)O)NC(=O)[C@H](CCCNC(=N)N)NC(=O)[C@H](Cc1ccccc1)NC(=O)[C@H](Cc1ccccc1)NC(=O)[C@H](CCCCN)NC(=O)[C@H](CO)NC(=O)[C@H](CC(C)C)NC(=O)[C@H](CCCNC(=N)N)NC(=O)[C@H](CCSC)NC(=O)[C@@H](N)CCC(=O)O)C(=O)N[C@@H](CC(C)C)C(=O)N[C@@H](CCC(N)=O)C(=O)N[C@@H](CCCNC(=N)N)C(=O)N[C@@H](CCCCN)C(=O)N[C@@H](CCCCN)C(=O)O [CSP1],Growth inhibition of co-cultured S. mitis by S. mutans stimulated with peptide (diameter of clear area),[1],significantly inhibited the growth
same,Expression of comE in S. mutans,comE gene,increased the expression
same,Expression of bip in S. mutans,bip gene,induced the expression
same,"Minimum inhibitory concentration (MIC), S. oralis",S. oralis,25 µM
same,"Minimum inhibitory concentration (MIC), S. mitis",S. mitis,25 µM
